Like-named read-outs stand apart in the source and are kept apart here.
How the values were obtained:
[1] = test system: Pseudomonas aeruginosa; experiment: Biofilm viability, resazurin assay, Pseudomonas aeruginosa clinical isolates; assay type: cell-based; settings: read-out: % bacterial viability; for viability at 10000 µM: GSH 10 mM; for viability at 15000 µM: GSH 15 mM; for viability at 30000 µM: GSH 30 mM
[2] = test system: methicillin-resistant Staphylococcus aureus; experiment: microbe, parasite or virus in culture; settings: MRSA

SMILES: N[C@@H](CCC(=O)N[C@@H](CS)C(=O)NCC(=O)O)C(=O)O [GSH, glutathione]
- viability at 10000 µM ([1]; 364077 Scalp wound): 95.6%
- viability at 15000 µM ([1]; 364077 Scalp wound): 93%
- viability at 30000 µM ([1]; 364077 Scalp wound): 30.3%
- viability at 10000 µM ([1]; 365707 Left ankle wound): 104%
- viability at 15000 µM ([1]; 365707 Left ankle wound): 101%
- viability at 30000 µM ([1]; 365707 Left ankle wound): 11.2%
- viability at 10000 µM ([1]; PA0053 DFU): 89.8%
- viability at 15000 µM ([1]; PA0053 DFU): 74.5%
- viability at 30000 µM ([1]; PA0053 DFU): 7.3%
- viability at 10000 µM ([2]; read-out: % bacterial viability, MRSA 27060 Left leg, GSH 10 mM): 88.8%
- viability at 15000 µM ([2]; read-out: % bacterial viability, MRSA 27060 Left leg, GSH 15 mM): 65.2%
- viability at 30000 µM ([2]; read-out: % bacterial viability, MRSA 27060 Left leg, GSH 30 mM): 1.02%
- viability at 10000 µM ([2]; read-out: % bacterial viability, MRSA 30616 Chin vesicle, GSH 10 mM): 73.1%
- viability at 15000 µM ([2]; read-out: % bacterial viability, MRSA 30616 Chin vesicle, GSH 15 mM): 58.8%
- viability at 30000 µM ([2]; read-out: % bacterial viability, MRSA 30616 Chin vesicle, GSH 30 mM): 4.54%
- viability at 10000 µM ([2]; read-out: % bacterial viability, MRSA - 0799 DFU, GSH 10 mM): 86.7%
- viability at 15000 µM ([2]; read-out: % bacterial viability, MRSA - 0799 DFU, GSH 15 mM): 75%
- viability at 30000 µM ([2]; read-out: % bacterial viability, MRSA - 0799 DFU, GSH 30 mM): 33.1%
